According to patent publication EP0981362B1, “USE OF GLP-2 AGONISTS ENHANCING F[…] THE UPPER GASTROINTESTINAL TRACT” (1149336 ONTARIO INC., priority 1997, dated 1998):

System: female CD1 mice
Assay: Indomethacin-induced mortality in mice (model dose)
Assay type: in vivo
Conditions: indomethacin 7 mg/kg s.c. bid for two days following overnight fasting; 7-8 week old female CD1 mice; saline-treated control animals
Experimental: Indomethacin(1-[p-chlorobenzoyl]-5-methoxy-2-methylindole-3-acetic acic) (Sigma Chemical Co., St Louis MO, lot 74H1212), stock solution was prepared and aliquoted 1 hr before the first injection. The mice were weighed, and then fasted overnight, and given food one hour prior to the first indomethacin injection. Mice were not fasted for the second indomethacin injection. Indomethacin (14.5 mg) was weighed out using a Mettler AE166 scale and dissolved in 1 mL anhydrous ethyl alcohol. The solution was warmed at 37° C for 5 minutes and thoroughly vortexed every minute until fully dissolved. 998.1 uL of stock indomethacin solution was diluted in 41 ml 5% NaHCO3 pH 7.3. […] Indomethacin used in the second injection was stored at -20° C overnight and allowed to thaw at room temperature prior to injection. Mice were injected at the same time (10:00 AM) on both days approximately 1 hr after receiving h[Gly^2]-GLP-2. Animals not receiving indomethacin were administered vehicle alone (250 µl anhydrous ethyl alcohol in 10.5 mL NaHCO3 pH 7.3 - a final injection volume of 0.5 ml was given daily over 2 days). Animals were sacrificed in a CO2 chamber 14 days following the administration of either PBS or h[Gly^2]-GLP-2.
Pilot experiments were performed to determine an indomethacin dose that reproducibly produced ∼ 50% mortality in mice. […]

`COc1ccc2c(c1)c(CC(=O)O)c(C)n2C(=O)c1ccc(Cl)cc1` [indomethacin, 1-[p-chlorobenzoyl]-5-methoxy-2-methylindole-3-acetic acic] showed a mortality of 50%.
